From US11759462B2, “Spirocyclic compounds as tryptophan hydroxylase inhibitors” (priority 2013, dated 2023)

What follows are compounds tested against T1, Recombinant human TPH1 (MBP tagged) (Homo sapiens, UniProt P17752) (assay: TPH1 in vitro inhibition assay (kinetic fluorescence)). Conditions: TPH1 Range (TPH1 inhibition IC50).
T1 construct: cloning full length human TPH1 cDNA in to a bacterial pMAL-c5E expression vector; made in house; host or cells: E. coli BL21 (DE3)
T1 sequence (P17752 1-444): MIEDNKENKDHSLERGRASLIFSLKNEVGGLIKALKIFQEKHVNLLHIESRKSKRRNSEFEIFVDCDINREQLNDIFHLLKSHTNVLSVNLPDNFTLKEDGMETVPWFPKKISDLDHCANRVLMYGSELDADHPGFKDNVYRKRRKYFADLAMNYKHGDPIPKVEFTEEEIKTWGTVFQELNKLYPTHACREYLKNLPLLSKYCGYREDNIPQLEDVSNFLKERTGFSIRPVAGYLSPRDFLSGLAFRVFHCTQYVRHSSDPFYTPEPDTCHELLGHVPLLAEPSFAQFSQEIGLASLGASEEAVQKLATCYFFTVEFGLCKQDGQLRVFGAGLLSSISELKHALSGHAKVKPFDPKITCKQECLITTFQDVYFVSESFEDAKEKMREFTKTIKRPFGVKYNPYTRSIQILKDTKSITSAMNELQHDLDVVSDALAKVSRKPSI
Type: biochemical
Text: Recombinant human TPH1 (rTPH1 GenBank™ accession no. NP_004179) was expressed by cloning full length human TPH1 cDNA in to a bacterial pMAL-c5E expression vector to produce maltose-binding protein (MBP) TPH1 fusion proteins. E. coli BL21 (DE3) containing pMAL-c5E-TPH1 was used for protein generation and the recombinant protein was purified utilizing standard column chromatography techniques. The MBP tagged TPH1 (MBP-TPH1) was used directly to screen compounds as described below. Recombinant human TPH2 (rTPH2 GenBank™ accession no. 173353), PheOH (rPheOH GenBank™ accession no. K03020) and TH (rTH GenBank™ accession no. L20679) with an MBP tag were produced similarly.
TPH1 activities were measured in an assay containing 200 mM ammonium sulfate, 7 mM DTT, 50 μg/mL catalase, 25 μM ammonium iron sulfate, 50 mM MES, pH 7.1. Test compounds were diluted in 100% DMSO and added to the assay plate in 1 μL aliquots at 100× final concentration. Fifty microliters of assay buffer containing 30 nM TPH1 enzyme (MBP tagged) were added to the plate wells containing the test compound by the use of an Eppendorf repeater pipette. The reaction was initiated by the addition of 50 μL of assay buffer containing 60 μM tryptophan and 72 μM 6-6-methyltetra-hydropterin (2× final concentration) by the use of a Multidrop (LabSystems). Final reaction conditions were 15 nM TPH1 enzyme, 30 μM tryptophan, 36 μM 6-methyltetra-hydropterin, 200 mM ammonium sulfate, 7 mM DTT, […], 25 μM ferrous ammonium sulfate, 50 mM MES, pH 7.1, with atmospheric oxygen at room temperature. The plate was immediately placed onto an M5 plate reader (Molecular Devices) for kinetic fluorescence measurement using an excitation setting of 300 nm and an emission setting of 335 nm. Fluorescence reads are recorded in kinetic mode for 300 seconds (5 minutes).
Kinetic assay data for compounds at specific concentrations was translated into slopes using the Softmax Pro software on a Spectramax reader, and compound inhibition slopes were compared with wells containing enzyme, substrate and cofactor in the absence of inhibitor (100%), and wells containing substrate and cofactor in the absence of enzyme (0%). DMSO concentration in the assay was 1%. […] IC50's were determined using Graphpad Prism.

| SMILES | IC50 [nM] |
| --- | --- |
| Cc1ccn(-c2cc(-c3ccc(Cl)c(Cl)c3)ccc2[C@@H](Oc2cc(N3CCC4(CC3)CN[C@H](C(=O)O)C4)nc(N)n2)C(F)(F)F)n1 [Example 1af, (S)-8-(2-amino-6-((R)-1-(3′,4′-dichloro-3-(3-methyl-1H-pyrazol-1-yl)-[1,1′-biphenyl]-4-yl)-2,2,2-trifluoroethoxy)pyrimidin-4-yl)-2,8-diazaspiro[4.5]decane-3-carboxylic acid] | < 50 |

Same assay, conditions: read-out: TPH1 Range (TPH1 inhibition IC50)

| SMILES | IC50 [nM] |
| --- | --- |
| Cc1ccn(-c2cc(-c3ccc4ncccc4c3)ccc2[C@@H](Oc2cc(N3CCC4(CC3)CN[C@H](C(=O)O)C4)nc(N)n2)C(F)(F)F)n1 [Example 1ad, (S)-8-(2-amino-6-((R)-2,2,2-trifluoro-1-(2-(3-methyl-1H-pyrazol-1-yl)-4-(quinolin-6-yl)phenyl)ethoxy)pyrimidin-4-yl)-2,8-diazaspiro[4.5]decane-3-carboxylic acid] | < 50 |
| Cc1ccn(-c2cc(-c3ccc(F)c(F)c3)ccc2[C@@H](Oc2cc(N3CCC4(CC3)CN[C@H](C(=O)O)C4)nc(N)n2)C(F)(F)F)n1 [Example 1ag, (S)-8-(2-amino-6-((R)-1-(3′,4′-difluoro-3-(3-methyl-1H-pyrazol-1-yl)-[1,1′-biphenyl]-4-yl)-2,2,2-trifluoroethoxy)pyrimidin-4-yl)-2,8-diazaspiro[4.5]decane-3-carboxylic acid] | < 50 |
| Cc1ccn(-c2cc(-c3cncnc3)ccc2[C@@H](Oc2cc(N3CCC4(CC3)CN[C@H](C(=O)O)C4)nc(N)n2)C(F)(F)F)n1 [Example 1ai, (S)-8-(2-amino-6-((R)-2,2,2-trifluoro-1-(2-(3-methyl-1H-pyrazol-1-yl)-4-(pyrimidin-5-yl)phenyl)ethoxy)pyrimidin-4-yl)-2,8-diazaspiro[4.5]decane-3-carboxylic acid] | < 50 |
| Cc1ccn(-c2cc(-c3cc(Cl)cc(C(F)(F)F)c3)ccc2[C@@H](Oc2cc(N3CCC4(CC3)CN[C@H](C(=O)O)C4)nc(N)n2)C(F)(F)F)n1 [Example 1ak, (S)-8-(2-amino-6-((R)-1-(3′-chloro-3-(3-methyl-1H-pyrazol-1-yl)-5′-(trifluoromethyl)-[1,1′-biphenyl]-4-yl)-2,2,2-trifluoroethoxy)pyrimidin-4-yl)-2,8-diazaspiro[4.5]decane-3-carboxylic acid] | 50 to 300 |
| CCOc1ccc(-c2ccc([C@@H](Oc3cc(N4CCC5(CC4)CN[C@H](C(=O)O)C5)nc(N)n3)C(F)(F)F)c(-n3ccc(C)n3)c2)cc1Cl [Example 1al, (S)-8-(2-amino-6-((R)-1-(3′-chloro-4′-ethoxy-3-(3-methyl-1H-pyrazol-1-yl)-[1,1′-biphenyl]-4-yl)-2,2,2-trifluoroethoxy)pyrimidin-4-yl)-2,8-diazaspiro[4.5]decane-3-carboxylic acid] | < 50 |
| Cc1ccn(-c2cc(-c3cccc(C(F)(F)F)c3)ccc2[C@@H](Oc2cc(N3CCC4(CC3)CN[C@H](C(=O)O)C4)nc(N)n2)C(F)(F)F)n1 [Example 1am, (S)-8-(2-amino-6-((R)-2,2,2-trifluoro-1-(3-(3-methyl-1H-pyrazol-1-yl)-3′-(trifluoromethyl)-[1,1′-biphenyl]-4-yl)ethoxy)pyrimidin-4-yl)-2,8-diazaspiro[4.5]decane-3-carboxylic acid] | < 50 |
| Cc1cc(Cl)cc(-c2ccc([C@@H](Oc3cc(N4CCC5(CC4)CN[C@H](C(=O)O)C5)nc(N)n3)C(F)(F)F)c(-n3ccc(C)n3)c2)c1 [Example 1an, (S)-8-(2-amino-6-((R)-1-(3′-chloro-5′-methyl-3-(3-methyl-1H-pyrazol-1-yl)-[1,1′-biphenyl]-4-yl)-2,2,2-trifluoroethoxy)pyrimidin-4-yl)-2,8-diazaspiro[4.5]decane-3-carboxylic acid] | < 50 |
| Cc1ccn(-c2cc(-c3ccc(Cl)c(F)c3)ccc2[C@@H](Oc2cc(N3CCC4(CC3)CN[C@H](C(=O)O)C4)nc(N)n2)C(F)(F)F)n1 [Example 1ao, (S)-8-(2-amino-6-((R)-1-(4′-chloro-3′-fluoro-3-(3-methyl-1H-pyrazol-1-yl)-[1,1′-biphenyl]-4-yl)-2,2,2-trifluoroethoxy)pyrimidin-4-yl)-2,8-diazaspiro[4.5]decane-3-carboxylic acid] | < 50 |
| Cc1ccn(-c2cc(-c3ccc(C)c(F)c3)ccc2[C@@H](Oc2cc(N3CCC4(CC3)CN[C@H](C(=O)O)C4)nc(N)n2)C(F)(F)F)n1 [Example 1aq, (S)-8-(2-amino-6-((R)-2,2,2-trifluoro-1-(3′-fluoro-4′-methyl-3-(3-methyl-1H-pyrazol-1-yl)-[1,1′-biphenyl]-4-yl)ethoxy)pyrimidin-4-yl)-2,8-diazaspiro[4.5]decane-3-carboxylic acid] | 50 to 300 |

More lines, now with the values ahead:

| IC50 [nM] | SMILES |
| --- | --- |
| < 50 | Cc1ccn(-c2cc(-c3ccc([S+](C)[O-])cc3)ccc2[C@@H](Oc2cc(N3CCC4(CC3)CN[C@H](C(=O)O)C4)nc(N)n2)C(F)(F)F)n1 (stereo partly drawn) [Example 1a, (3S)-8-(2-amino-6-((1R)-2,2,2-trifluoro-1-(3-(3-methyl-1H-pyrazol-1-yl)-4′-(methylsulfinyl)-[1,1′-biphenyl]-4-yl)ethoxy)pyrimidin-4-yl)-2,8-diazaspiro[4.5]decane-3-carboxylic acid] |
| < 50 | Cc1ccn(-c2cc(-c3ccc(CN)cc3)ccc2[C@@H](Oc2cc(N3CCC4(CC3)CN[C@H](C(=O)O)C4)nc(N)n2)C(F)(F)F)n1 [Example 1ab, (S)-8-(2-amino-6-((R)-1-(4′-(aminomethyl)-3-(3-methyl-1H-pyrazol-1-yl)-[1,1′-biphenyl]-4-yl)-2,2,2-trifluoroethoxy)pyrimidin-4-yl)-2,8-diazaspiro[4.5]decane-3-carboxylic acid] |
| < 50 | Cc1ccn(-c2cc(-c3cccc(F)c3)ccc2[C@@H](Oc2cc(N3CCC4(CC3)CN[C@H](C(=O)O)C4)nc(N)n2)C(F)(F)F)n1 [Example 1ac, (S)-8-(2-amino-6-((R)-2,2,2-trifluoro-1-(3′-fluoro-3-(3-methyl-1H-pyrazol-1-yl)-[1,1′-biphenyl]-4-yl)ethoxy)pyrimidin-4-yl)-2,8-diazaspiro[4.5]decane-3-carboxylic acid] |
| < 50 | Cc1ccc(-c2ccc([C@@H](Oc3cc(N4CCC5(CC4)CN[C@H](C(=O)O)C5)nc(N)n3)C(F)(F)F)c(-n3ccc(C)n3)c2)cc1 [Example 1ae, (S)-8-(2-amino-6-((R)-2,2,2-trifluoro-1-(4′-methyl-3-(3-methyl-1H-pyrazol-1-yl)-[1,1′-biphenyl]-4-yl)ethoxy)pyrimidin-4-yl)-2,8-diazaspiro[4.5]decane-3-carboxylic acid] |
| < 50 | Cc1ccn(-c2cc(-c3ccc(Cl)cc3)ccc2[C@@H](Oc2cc(N3CCC4(CC3)CN[C@H](C(=O)O)C4)nc(N)n2)C(F)(F)F)n1 [Example 1ah, (S)-8-(2-amino-6-((R)-1-(4′-chloro-3-(3-methyl-1H-pyrazol-1-yl)-[1,1′-biphenyl]-4-yl)-2,2,2-trifluoroethoxy)pyrimidin-4-yl)-2,8-diazaspiro[4.5]decane-3-carboxylic acid] |
| < 50 | CCOc1cccc(-c2ccc([C@@H](Oc3cc(N4CCC5(CC4)CN[C@H](C(=O)O)C5)nc(N)n3)C(F)(F)F)c(-n3ccc(C)n3)c2)c1 [Example 1ap, (S)-8-(2-amino-6-((R)-1-(3′-ethoxy-3-(3-methyl-1H-pyrazol-1-yl)-[1,1′-biphenyl]-4-yl)-2,2,2-trifluoroethoxy)pyrimidin-4-yl)-2,8-diazaspiro[4.5]decane-3-carboxylic acid] |
